Results on three molecules are retold here after patent publication US9340500B2, “Aromatic heterocyclic derivative having TRPV4-inhibiting activity” (SHIONOGI & CO., LTD., priority 2011, dated 2016).

One series in a line: Solubility test. It is filed as physicochemical. The note with it: artificial intestinal juice (phosphate buffer) with 1% DMSO, fassgf or other biorelevant, kinetic from dmso stock, artificial intestinal juice pH 6.8, 16 hours at 25° C. The procedure, abridged:
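A DMSO stock was added to artificial intestinal juice at pH 6.8, giving 1% DMSO. The mixture stood 16 hours at 25° C. and was vacuum-filtered. Dissolved compound in the filtrate was quantified by HPLC or LC/MS/MS using absolute calibration.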

A short description of series [1]: Metabolism stability test. It counts as in vitro ADME. To be noted: human liver microsomes, 30 minutes, compound concentration 2 μmol/L. Here is the method: Using a commercially available pooled human hepatic microsomes, a test compound was reacted for a constant time, a remaining rate was calculated by comparing a reacted sample and an unreacted sample, thereby, a degree of metabolism in liver was assessed.
A reaction was performed (oxidative reaction) at 37° C. for 0 minute or 30 minutes in the presence of 1 mmol/L NADPH in 0.2 mL of a buffer (50 mmol/L Tris-HCl pH 7.4, 150 mmol/L potassium chloride, 10 mmol/L magnesium chloride) containing 0.5 mg protein/mL of human liver microsomes. After the reaction, 50 μL of the reaction mixture was added to 100 μL of a methanol/acetonitrile=1/1 (v/v), mixed and centrifuged at 3000 rpm for 15 minutes. The test compound in the supernatant was quantified by LC/MS/MS, and a remaining amount of the test compound after the reaction was calculated, letting a compound amount at 0 minute reaction time to be 100%. Hydrolysis reaction was performed in the absence of NADPH and glucuronidation reaction was in the presence of 5 mM UDP-glucuronic acid in place of NADPH, followed by similar operations.
Background: Liver microsomes are vesicles of endoplasmic reticulum, rich in cytochrome P450 enzymes.

Series [2] concerns the target human ether-a-go-go related gene (hERG) channel (Homo sapiens (Human), UniProt Q12809). As to the kind of experiment: hERG test (whole cell patch clamp, IKr). It counts as cell-based. To be noted: 1 μmol/L of test compound, HEK293 cells expressing hERG. From the text: For the purpose of assessing risk of an electrocardiogram QT interval prolongation, effects on delayed rectifier K^+ current (IKr), which plays an important role in the ventricular repolarization process, was studied using HEK293 cells expressing human ether-a-go-go related gene (hERG) channel.
After a cell was retained at a membrane potential of −80 mV by whole cell patch clamp method using an automated patch clamp system (PatchXpress 7000A, Axon Instruments Inc.), IKr induced by depolarization pulse stimulation at +40 mV for 2 seconds and, further, repolarization pulse stimulation at −50 mV for 2 seconds was recorded. […] From the recording IKr, an absolute value of the tail peak current was measured based on the current value at the resting membrane potential using an analysis software (DataXpress ver. 1, Molecular Devices Corporation). Further, the % inhibition relative to the tail peak current before application of the test substance was calculated, and compared with the vehicle-applied group (0.1% dimethyl sulfoxide solution) to assess influence of the test substance on IKr.

≈ marks a conversion by molar mass, not a printed value. Bounds are passed on as bounds.

human ether-a-go-go related gene (hERG) channel, sequence (Q12809 whole entry): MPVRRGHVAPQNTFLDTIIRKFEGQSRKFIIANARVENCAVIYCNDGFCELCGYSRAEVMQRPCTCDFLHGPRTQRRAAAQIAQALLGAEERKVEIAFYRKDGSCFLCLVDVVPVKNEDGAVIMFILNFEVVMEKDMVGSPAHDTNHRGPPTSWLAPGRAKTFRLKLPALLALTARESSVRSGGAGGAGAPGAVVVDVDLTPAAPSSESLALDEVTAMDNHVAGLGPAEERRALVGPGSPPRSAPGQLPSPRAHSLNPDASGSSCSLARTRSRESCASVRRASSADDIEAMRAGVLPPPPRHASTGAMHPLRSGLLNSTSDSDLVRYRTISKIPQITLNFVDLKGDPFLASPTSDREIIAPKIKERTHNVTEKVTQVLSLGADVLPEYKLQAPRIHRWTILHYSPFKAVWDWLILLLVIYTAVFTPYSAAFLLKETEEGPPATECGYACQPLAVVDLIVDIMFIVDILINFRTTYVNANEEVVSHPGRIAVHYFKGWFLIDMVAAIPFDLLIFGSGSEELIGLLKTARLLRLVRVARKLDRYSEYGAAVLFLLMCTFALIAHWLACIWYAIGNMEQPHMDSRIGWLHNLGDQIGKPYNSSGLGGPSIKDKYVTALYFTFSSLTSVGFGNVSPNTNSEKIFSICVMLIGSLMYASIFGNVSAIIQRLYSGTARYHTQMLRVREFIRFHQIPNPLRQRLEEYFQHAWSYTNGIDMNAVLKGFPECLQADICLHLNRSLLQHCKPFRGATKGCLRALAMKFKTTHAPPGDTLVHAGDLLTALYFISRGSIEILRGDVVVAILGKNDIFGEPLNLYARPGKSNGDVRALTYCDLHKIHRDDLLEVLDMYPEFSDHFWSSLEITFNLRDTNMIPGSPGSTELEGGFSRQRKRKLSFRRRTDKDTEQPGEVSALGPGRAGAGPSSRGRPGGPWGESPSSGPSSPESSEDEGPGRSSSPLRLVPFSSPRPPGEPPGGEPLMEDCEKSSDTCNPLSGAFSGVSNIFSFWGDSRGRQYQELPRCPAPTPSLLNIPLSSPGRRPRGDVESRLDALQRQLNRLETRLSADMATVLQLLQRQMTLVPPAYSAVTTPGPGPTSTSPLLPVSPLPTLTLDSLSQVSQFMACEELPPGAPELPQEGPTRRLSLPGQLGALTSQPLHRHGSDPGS

For the molecule `Cc1c(C(=O)Nc2cccc(C(F)(F)F)c2)ccn1CCCN1CCOCC1` [Compound I-007], the solubility at 16 h in “Solubility test” was over 50 µM. In series [1], the “remaining rate (metabolism stability)” value is recorded as 85%.

`Cc1c(C(=O)Nc2cccc(C(F)(F)F)c2)cc(-c2ccccc2)n1CCCNS(C)(=O)=O` [Compound I-026] yielded a hERG % inhibition in series [2] of 11.7%. The molecule also displayed a solubility at 16 h in the series “Solubility test” of 10.1 µM (≈ 4.84 µg/mL).

As for `Cc1c(C(=O)Nc2cccc(C(F)(F)F)c2)cc(-c2ccccc2)n1CCCN(C)C` [Compound I-018], the solubility at 16 h in “Solubility test” is over 50 µM. Moreover, the “remaining rate (metabolism stability)” value in series [1] is on record as 70.6%.

The solubility is how much of the substance goes into solution per volume. Low readings indicate little dissolved substance, high ones much dissolved substance.
